Experimental data from ChEMBL document CHEMBL1201862, “PubChem BioAssay data set” (2004).
Calls of active or inactive are those of the source.

Experiments:
[1] = molecular target: T1, Calpain-2 catalytic subunit (Sus scrofa, UniProt P43367); experiment: m-calpain protease blockers, concentration series – biochemical, fluorogenic peptide substrate, dose response (AID 1420); format: functional
T1 sequence (P43367 whole entry): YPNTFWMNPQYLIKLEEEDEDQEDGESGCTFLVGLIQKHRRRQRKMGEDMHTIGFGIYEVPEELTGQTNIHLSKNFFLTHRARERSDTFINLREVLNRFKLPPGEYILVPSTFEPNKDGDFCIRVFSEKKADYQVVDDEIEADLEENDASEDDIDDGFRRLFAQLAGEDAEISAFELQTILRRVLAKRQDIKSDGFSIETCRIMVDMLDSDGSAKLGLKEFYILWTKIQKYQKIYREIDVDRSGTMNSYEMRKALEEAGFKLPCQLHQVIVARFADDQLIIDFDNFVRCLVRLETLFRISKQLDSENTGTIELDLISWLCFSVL

[2] = fluconazole-exposed Candida albicans growth modulators – fluorescence, retest, confirmation (AID 2467); format: functional, cell-based
[3] = NIH-3T3 fibroblast cytotoxicity, dose response, cytotoxicity control, cell-based, fluorescence, Alamar Blue, secondary assay (AID 2327); format: functional;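 further: NIH-3T3 mouse fibroblasts cultured with fluconazole at 8 µg/mL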
Protein RecA = molecular target: T2, Protein RecA (Mycobacterium tuberculosis, UniProt P9WHJ3); experiment: Fluorescence Cell-Free Homogeneous Dose Retest to Identify Inhibitors of RecA-Intein Splicing Activity. [Related pubchem assays (depositor defined):AID2097, AID2223, AID489010, AID492950]; format: functional
T2 sequence (P9WHJ3 whole entry): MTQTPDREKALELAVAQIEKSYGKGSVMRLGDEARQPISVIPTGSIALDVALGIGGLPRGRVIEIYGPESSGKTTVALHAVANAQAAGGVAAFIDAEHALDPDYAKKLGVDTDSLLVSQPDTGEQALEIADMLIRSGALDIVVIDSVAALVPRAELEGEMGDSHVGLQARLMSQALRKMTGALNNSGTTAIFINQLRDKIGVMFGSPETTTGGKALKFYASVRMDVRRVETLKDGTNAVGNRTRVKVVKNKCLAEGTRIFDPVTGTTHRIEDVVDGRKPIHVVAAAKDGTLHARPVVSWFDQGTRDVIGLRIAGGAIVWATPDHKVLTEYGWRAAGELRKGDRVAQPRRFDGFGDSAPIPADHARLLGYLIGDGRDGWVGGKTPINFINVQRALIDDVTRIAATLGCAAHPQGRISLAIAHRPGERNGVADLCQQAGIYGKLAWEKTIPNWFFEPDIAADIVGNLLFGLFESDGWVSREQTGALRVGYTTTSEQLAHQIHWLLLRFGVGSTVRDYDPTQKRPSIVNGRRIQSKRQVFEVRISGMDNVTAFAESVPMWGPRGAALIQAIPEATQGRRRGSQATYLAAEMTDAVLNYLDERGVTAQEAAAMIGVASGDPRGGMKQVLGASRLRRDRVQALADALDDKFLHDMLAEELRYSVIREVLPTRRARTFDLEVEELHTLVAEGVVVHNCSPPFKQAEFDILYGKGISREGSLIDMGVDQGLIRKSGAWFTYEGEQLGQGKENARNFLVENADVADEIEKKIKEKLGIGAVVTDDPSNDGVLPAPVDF

[4] = molecular target: T3, Replicative DNA helicase DnaB (Mycobacterium tuberculosis, UniProt P9WMR3); experiment: DnaB intein splicing inhibitors, dose response, biochemical, cell-free fluorescence (AID 449749); format: functional
T3 sequence (P9WMR3 whole entry): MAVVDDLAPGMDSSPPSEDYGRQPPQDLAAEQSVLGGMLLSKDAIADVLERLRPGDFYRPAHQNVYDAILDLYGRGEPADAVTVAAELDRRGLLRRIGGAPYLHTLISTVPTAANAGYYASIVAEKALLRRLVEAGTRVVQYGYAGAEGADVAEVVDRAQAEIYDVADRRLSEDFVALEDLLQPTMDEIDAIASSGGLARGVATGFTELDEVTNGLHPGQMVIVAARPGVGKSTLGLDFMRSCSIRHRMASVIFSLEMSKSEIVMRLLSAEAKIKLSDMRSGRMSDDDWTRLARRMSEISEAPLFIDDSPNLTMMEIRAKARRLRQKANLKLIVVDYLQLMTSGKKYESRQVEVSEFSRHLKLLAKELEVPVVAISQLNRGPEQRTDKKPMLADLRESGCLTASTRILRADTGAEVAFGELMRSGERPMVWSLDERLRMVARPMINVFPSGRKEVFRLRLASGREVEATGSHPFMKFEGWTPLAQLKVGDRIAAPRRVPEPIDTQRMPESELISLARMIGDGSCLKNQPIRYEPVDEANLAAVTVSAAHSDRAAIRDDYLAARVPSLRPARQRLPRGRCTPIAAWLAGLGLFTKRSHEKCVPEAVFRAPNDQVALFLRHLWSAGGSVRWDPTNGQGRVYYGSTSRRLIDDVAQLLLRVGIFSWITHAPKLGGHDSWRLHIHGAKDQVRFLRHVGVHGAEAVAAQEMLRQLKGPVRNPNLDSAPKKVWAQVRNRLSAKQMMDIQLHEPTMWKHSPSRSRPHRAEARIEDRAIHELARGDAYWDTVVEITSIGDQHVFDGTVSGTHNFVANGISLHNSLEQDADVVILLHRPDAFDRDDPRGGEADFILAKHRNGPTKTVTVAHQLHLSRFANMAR

[5] = viability of uninfected HEp-2 cells – cell-based, HTS, cytotoxicity control for RSV inhibitor project, dose response (AID 2410); format: functional; conditions: human respiratory syncytial virus
[6] = Luminescence Cell-Based Dose Retest to Confirm Inhibitors of Cancer Stem Cells. [Related pubchem assays (depositor defined):AID2717, AID2721]; format: functional; conditions: Homo sapiens
[7] = molecular target: T4, Heat shock factor protein 1 (Mus musculus, UniProt P38532); experiment: decrease of HSF1-responsive luciferase luminescence – cell-based, NIH3T3, dose retest, confirmation (AID 2382); format: functional;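 further: NIH3T3 fibroblasts with HSF1-driven luciferase reporter stressed by proteasome inhibitor MG132; luminescence from HSF1-driven luciferase expression after 8 hours of MG132 stress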
T4 sequence (P38532 whole entry): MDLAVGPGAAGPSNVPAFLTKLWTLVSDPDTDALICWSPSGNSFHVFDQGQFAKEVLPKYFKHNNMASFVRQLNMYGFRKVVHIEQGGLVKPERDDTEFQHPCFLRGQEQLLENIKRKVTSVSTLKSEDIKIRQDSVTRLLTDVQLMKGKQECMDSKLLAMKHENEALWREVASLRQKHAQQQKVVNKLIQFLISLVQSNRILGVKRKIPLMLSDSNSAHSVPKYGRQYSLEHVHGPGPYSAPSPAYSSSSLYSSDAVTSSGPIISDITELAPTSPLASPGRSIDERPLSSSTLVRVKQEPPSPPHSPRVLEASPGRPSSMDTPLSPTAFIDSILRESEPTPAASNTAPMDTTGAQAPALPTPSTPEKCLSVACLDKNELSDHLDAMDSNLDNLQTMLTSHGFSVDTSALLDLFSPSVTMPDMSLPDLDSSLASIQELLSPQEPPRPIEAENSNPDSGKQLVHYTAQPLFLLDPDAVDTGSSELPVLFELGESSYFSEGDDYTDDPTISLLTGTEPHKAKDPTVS

[8] = molecular target: T5, Rac GTPase-activating protein 1 (Homo sapiens, UniProt Q9H0H5); experiment: blockers of MgcRacGAP-driven Rac1 GTP hydrolysis – biochemical, ADP Hunter fluorescence, primary and confirmatory, confirmation (AID 624330); format: functional
T5 sequence (Q9H0H5 whole entry): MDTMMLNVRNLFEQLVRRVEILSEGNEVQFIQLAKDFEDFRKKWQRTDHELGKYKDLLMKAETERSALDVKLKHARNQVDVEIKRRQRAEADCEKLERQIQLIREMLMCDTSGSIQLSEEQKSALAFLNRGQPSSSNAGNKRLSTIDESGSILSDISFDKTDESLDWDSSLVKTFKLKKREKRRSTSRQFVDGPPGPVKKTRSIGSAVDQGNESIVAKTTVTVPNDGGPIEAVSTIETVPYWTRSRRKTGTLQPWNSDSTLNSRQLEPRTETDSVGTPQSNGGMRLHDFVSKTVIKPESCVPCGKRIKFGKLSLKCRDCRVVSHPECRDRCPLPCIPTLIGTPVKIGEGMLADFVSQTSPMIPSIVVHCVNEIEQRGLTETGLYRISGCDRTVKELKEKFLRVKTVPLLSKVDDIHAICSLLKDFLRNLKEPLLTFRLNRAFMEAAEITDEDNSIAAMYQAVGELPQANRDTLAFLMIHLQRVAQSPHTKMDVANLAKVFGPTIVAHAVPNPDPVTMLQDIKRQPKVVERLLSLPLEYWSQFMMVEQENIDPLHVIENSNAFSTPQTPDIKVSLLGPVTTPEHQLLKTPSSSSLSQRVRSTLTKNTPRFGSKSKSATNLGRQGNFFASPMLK

Structure (SMILES): O=C1CC2C(=O)NCCN2C(NC(=O)c2ccc(Cl)cc2)=N1 (stereo not drawn)
- IC50 [1]: 0.931 µM (not active)

Structure (SMILES): N#Cc1c(-c2ccc(Cl)cc2)cc(-c2ccccc2)nc1SCC(=O)O
- EC50 [2]: 1.57 µM (active)
- EC50 [3]: 134 µM (active)

Structure (SMILES): CCCCC(=O)Nc1ccc(C(=O)c2ccccc2)cc1
- IC50 [1]: > 50 µM (not active)

Structure (SMILES): CC(C)CS(=O)(=O)C1=NSC2=NC(=O)/C(=C\c3ccc(OC(=O)c4ccco4)cc3)C(=N)N21
- EC50 (Protein RecA): 13.8 µM (active)
- AC50 [4]: > 380 µM (inactive)

Structure (SMILES): Cc1cccc(N2CCN(C(=O)c3ccc4c(c3)CCN4S(C)(=O)=O)CC2)c1C
- CC50 [5]: 38.3 µM (active)

Structure (SMILES): CCOC(=O)CN(C(=O)CSc1n[nH]c2c3cc(F)ccc3nc-2n1)c1ccccc1
- IC50 [1]: 5.94 µM (not active)

Structure (SMILES): COc1ccccc1NC(=O)Cn1cnc2c(cnn2-c2ccccc2)c1=O
- EC50 [2]: > 38 µM (not active)
- EC50 [3]: > 150 µM (inactive)

Structure (SMILES): CCCCNc1nnc(SCC(=O)N2CCN(S(=O)(=O)c3ccc4ccccc4c3)CC2)s1
- CC50 [5]: > 50 µM (active)

Structure (SMILES): Cc1ccc(/C=C/C(=O)c2c(C)cc(C)nc2O)cc1
- CC50 [5]: 17.7 µM (active)

Structure (SMILES): C=CCn1c(CCCNC(=O)c2ccccc2OC)nc2ccccc21
- IC50 [1]: 13.2 µM (not active)

Structure (SMILES): CC(Oc1ccc(F)cc1)C(=O)Oc1ccc(N(C)S(=O)(=O)c2ccccc2)cc1 (stereo not drawn)
- EC50 (Protein RecA): 58.5 µM (active)
- AC50 [4]: 0.725 µM (active)

Structure (SMILES): COc1ccccc1N1CCN(/N=C/c2cc([N+](=O)[O-])ccc2Cl)CC1
- CC50 [5]: 29 µM (active)

Structure (SMILES): N#Cc1cc2c(nc1SCc1nc3ccccc3[nH]1)CCC2
- CC50 [5]: 38 µM (active)

Structure (SMILES): Cc1nc2ccccc2c2c1C(=O)N(c1cccc(C(=O)O)c1)C2=O
- EC50 (Protein RecA): 17 µM (active)
- AC50 [4]: 37 µM (active)

Structure (SMILES): Cc1cccc(C(=O)c2cnc3ccccc3c2-c2ccccc2)c1
- EC50 (Protein RecA): 22.8 µM (active)
- AC50 [4]: 4.79 µM (active)

Structure (SMILES): Cc1ccc(N(CCCCN2C(=O)c3ccccc3C2=O)C(=O)c2cccs2)cc1
- CC50 [5]: 38.9 µM (active)

Structure (SMILES): CCOC(=O)c1cnc(N)nc1C(F)(F)F
- EC50 (Protein RecA): > 380 µM (inactive)
- AC50 [4]: > 380 µM (inactive)

Structure (SMILES): N#C/C(=C(/O)CN1C(=O)c2ccccc2C1=O)c1nc2ccccc2[nH]1
- IC50 [1]: 2.28 µM (not active)

Structure (SMILES): CCOc1ccc2nc(SCC(=O)N3CCN(C(=O)c4ccco4)CC3)sc2c1
- CC50 [5]: 22.8 µM (active)

Structure (SMILES): CCc1n[nH]c2c1C1(CCN(C(=O)c3ccccc3)CC1)C(C#N)=C(N)O2
- EC50 (Protein RecA): 4.3 µM (active)
- AC50 [4]: 24.6 µM (active)

Structure (SMILES): Cc1ccc(C2CC(C(F)F)n3ncc(C(=O)Nc4cnn(Cc5ccccc5C)c4)c3N2)cc1 (stereo not drawn)
- CC50 [5]: 19.4 µM (active)

Structure (SMILES): CC1=C(C(=O)OCc2ccccc2)C(c2cccs2)N2C(=O)CCSC2=N1 (stereo not drawn)
- IC50 [1]: 8.99 µM (not active)

Structure (SMILES): COc1ccccc1C1CC(c2ccco2)=NN1S(C)(=O)=O (stereo not drawn)
- EC50 [2]: > 38 µM (not active)
- EC50 [3]: > 160 µM (inconclusive)

Structure (SMILES): COc1ccc(/C(=C/Nc2cccc(Br)c2)C(C)=O)cc1OC
- IC50 [1]: 9 µM (not active)

Structure (SMILES): CC(C)c1n[nH]c2c1C1(CCN(Cc3ccccc3)CC1)C(C#N)=C(N)O2
- EC50 (Protein RecA): 1.16 µM (active)
- AC50 [4]: 53.5 µM (active)

Structure (SMILES): Cc1ccc(Cl)cc1N1CCN(C(=O)CCCn2c(=O)c3cccn3c3cccnc32)CC1
- CC50 [5]: 12.1 µM (active)

Structure (SMILES): CCN(c1ccc(OCC(=O)OCC(=O)Nc2ccc(F)c(F)c2F)cc1)S(=O)(=O)c1ccccc1
- IC50 [1]: 3.96 µM (not active)

Structure (SMILES): CC(=O)c1cccc(NC(=S)NC(=O)c2ccc(C)cc2)c1
- EC50 [2]: > 38 µM (not active)
- EC50 [3]: > 160 µM (inactive)

Structure (SMILES): CCOC(=O)c1ccc(-n2[nH]c(-c3ccccc3)cc2=O)cc1
- EC50 (Protein RecA): 2.25 µM (active)
- AC50 [4]: 3.43 µM (active)
- AC50 [6]: 5.35 µM (active)
- EC50 [7]: > 195 µM (not active)

Structure (SMILES): Cc1cc(C)c2c(c1)-c1c(ssc1=S)C(C)(C)N2C(=O)CSc1nncn1C
- EC50 (Protein RecA): 8.17 µM (active)
- AC50 [4]: 5.32 µM (active)

Structure (SMILES): O=C(Nc1ccc(F)c(Cl)c1)NC1CC1
- EC50 [2]: 2.1 µM (active)
- EC50 [3]: > 150 µM (inactive)

Structure (SMILES): CC(NC(=O)c1ccccc1)c1ccc(F)cc1 (stereo not drawn)
- IC50 [1]: > 50 µM (not active)

Structure (SMILES): COc1ccc(CN2C(=O)/C(=C\NNC(=O)c3cccnc3)c3ccccc3C2=O)cc1
- EC50 [2]: 1.32 µM (active)
- IC50 [8]: 137 µM (active)
- EC50 [3]: 27.4 µM (active)

Structure (SMILES): CCOC(=O)N1CCN(CC(=O)Nc2sccc2C#N)CC1
- IC50 [1]: 33.6 µM (not active)

Structure (SMILES): CCOC(=O)C1CCN(Cc2cc(C(C)C)c(O)c(C(C)C)c2)CC1
- EC50 (Protein RecA): > 380 µM (inactive)
